Read-outs that look alike come from different tables or passages of the source.
What was measured:
[1] = test system: SD rats; settings: rat, in vivo; for MLD: iv; as to Onset time: test concentration or dose not given here; as to Righting feflex duration: test concentration or dose not given here; as to Sedation Duration: test concentration or dose not given here
[2] = test system: SD rats; assay: animal or person; assay type: in vivo; settings: iv; for minimal effective dose: Rattus norvegicus
[3] = read-out: Minimal effective anesthetic dose
[4] = read-out: Minimal effective analgesic dose

Compound: O=CN1CCN2N=C(c3ccccn3)c3cc(Br)ccc3N=C12 [Compound 322]
- MLD [1]: 34 mg/kg

Compound: Cc1cnc2n1-c1ccc(Br)cc1C(c1ccccn1)=NC2CCC(=O)OC1COC1 (centres unmarked) [Compound 4]
- Minimal effective anesthetic dose ([2]; rat, in vivo): 15.0 mg/kg
- Onset time ([2]; rat, in vivo): 0.2 to 0.4 min
- Righting feflex duration ([2]; rat, in vivo): 1.1 to 3.5 min
- Sedation Duration ([2]; rat, in vivo): 4.2 to 10.8 min
- TI [1]: >1.5
- MLD [1]: >22.5 mg/kg

Compound: Cc1cnc2n1-c1ccc(Br)cc1C(c1ccccn1)=NC2COS(=O)c1ccccc1 (centres unmarked) [Compound 195]
- Minimal effective analgesic dose ([2]; rat, in vivo): 21.8 mg/kg
- Minimal effective anesthetic dose ([2]; rat, in vivo): 7.5 mg/kg
- Onset time ([2]; rat, in vivo): 0.2 to 0.5 min
- Righting feflex duration ([2]; rat, in vivo): 5.3 to 76.6 min
- Sedation Duration ([2]; rat, in vivo): 78.5 to 195.4 min
- TI [1]: >2.9
- MLD [1]: >21.8 mg/kg

Compound: Cc1cnc2n1-c1ccc(Br)cc1C(c1ccccn1)=NN2CC(=O)OC1(C)COC1 [Compound 314]
- minimal effective dose [2, 3]: 10 mg/kg
- Onset time ([2]; rat, in vivo): 0.15 to 0.67 min
- Righting feflex duration ([2]; rat, in vivo): 1.27 to 1.40 min
- Sedation Duration ([2]; rat, in vivo): 11.02 to 18.83 min
- TI ([1]; SD): 4
- MLD ([1]; SD): 40 mg/kg

Compound: Cc1ccc(C(=O)OCC2N=C(c3ccccn3)c3cc(Br)ccc3-n3c(C)cnc32)cc1 (centres unmarked) [Compound 192]
- Minimal effective anesthetic dose ([2]; rat, in vivo): 5.0 mg/kg
- Onset time ([2]; rat, in vivo): 0.2 to 0.4 min
- Righting feflex duration ([2]; rat, in vivo): 5.9 to 14.9 min
- Sedation Duration ([2]; rat, in vivo): 156.7 to 200.0 min
- TI [1]: 2.0
- MLD [1]: 10.0 mg/kg

Compound: CCOC(=O)OCCC1N=C(c2ccccn2)c2cc(Br)ccc2-n2c(C)cnc21 (centres unmarked) [Compound 154]
- Minimal effective anesthetic dose ([2]; rat, in vivo): 3.8 mg/kg
- Onset time ([2]; rat, in vivo): 0.5 to 0.9 min
- Righting feflex duration ([2]; rat, in vivo): 1.3 to 6.2 min
- Sedation Duration ([2]; rat, in vivo): 14.1 to 17.0 min
- TI [1]: 2.0
- MLD [1]: 7.5 mg/kg

Compound: CC(C)OC(=O)CN1N=C(c2ccccn2)c2cc(Br)ccc2N(C)C1=O [Compound 239]
- minimal effective dose [2, 4]: 10 mg/kg
- minimal effective dose [2, 3]: 5 mg/kg
- Onset time ([2]; rat, in vivo): 0.17 to 0.75 min
- Righting feflex duration ([2]; rat, in vivo): 1.30 to 11.58 min
- Sedation Duration ([2]; rat, in vivo): 17.72 to 23.57 min
- TI ([1]; SD): 8
- MLD ([1]; SD): 40 mg/kg

Compound: CN1C(=O)C(CCC(=O)OC2(C)COC2)N=C(c2ccccn2)c2cc(Br)ccc21 (centres unmarked) [Compound 14]
- Minimal effective anesthetic dose ([2]; rat, in vivo): 0.5 mg/kg
- Onset time ([2]; rat, in vivo): 0.2 to 0.7 min
- Righting feflex duration ([2]; rat, in vivo): 0.6 to 3.2 min
- Sedation Duration ([2]; rat, in vivo): 3.5 to 7.0 min
- TI [1]: >2
- MLD [1]: >1 mg/kg

Compound: CC(C)C(=O)OC(CN1N=C(c2ccccn2)c2cc(Br)ccc2N(C)C1=O)C(C)C (centres unmarked) [Compound 280]
- MLD ([1]; SD): 10 mg/kg

Compound: CC(C)Oc1cc(CCN2N=C(c3ccccn3)c3cc(Br)ccc3N(C)C2=O)on1 [Compound 272]
- MLD ([1]; SD): 30 mg/kg

Compound: CN1C(=O)N(COCc2ccccc2)N=C(c2ccccn2)c2cc(Br)ccc21 [Compound 286]
- minimal effective dose [2, 3]: 2.5 mg/kg
- Onset time ([2]; rat, in vivo): 1.32 to 3.20 min
- Righting feflex duration ([2]; rat, in vivo): 3.38 to 9.38 min
- Sedation Duration ([2]; rat, in vivo): 42.15 to 64.37 min
- TI ([1]; SD): 3
- MLD ([1]; SD): 7.5 mg/kg

Compound: CCOC(=O)CN1N=C(c2ccccn2)C=CN(C)C1=O [Compound 347]
- minimal effective dose [2, 4]: 20 mg/kg
- minimal effective dose [2, 3]: 20 mg/kg
- Onset time ([2]; rat, in vivo): 0.13 to 0.28 min
- Righting feflex duration ([2]; rat, in vivo): 2.25 to 4.47 min
- Sedation Duration ([2]; rat, in vivo): 15.35 to 54.20 min
- TI ([1]; SD): 2
- MLD [1]: 40 mg/kg

Compound: CC[C@@H](C)OC(=O)CN1N=C(c2ccccn2)c2cc(Br)ccc2-n2c(C)cnc21 [Compound 309]
- minimal effective dose [2, 4]: 12.5 mg/kg
- minimal effective dose [2, 3]: 2.5 mg/kg
- Onset time ([2]; rat, in vivo): 0.35 to 0.55 min
- Righting feflex duration ([2]; rat, in vivo): 2.38 to 18.82 min
- Sedation Duration ([2]; rat, in vivo): 27.68 to 46.83 min
- TI ([1]; SD): 6
- MLD ([1]; SD): 15 mg/kg

Compound: CCn1nnnc1CN1N=C(c2ccccn2)c2cc(Br)ccc2N(C)C1=O [Compound 268]
- MLD [1]: 40 mg/kg

Compound: Cc1cnc2n1-c1ccc(Br)cc1C(c1ccccn1)=NC2CCOCc1ccccc1 (centres unmarked) [Compound 144]
- MLD [1]: 3.8 mg/kg

Compound: C=CC1(OC(=O)CCN2N=C(c3ccccn3)c3cc(Br)ccc3N(C)C2=O)COC1 [Compound 262]
- MLD ([1]; SD): >20 mg/kg

Compound: CCOC(=O)C(C)N1N=C(c2ccccn2)c2cc(Br)ccc2N(C)C1=O (centres unmarked) [Compound 276]
- MLD ([1]; SD): 20 mg/kg

Compound: CN1C(=O)N(CCOCc2ccccc2)N=C(c2ccccn2)c2cc(Br)ccc21 [Compound 285]
- MLD ([1]; SD): 15 mg/kg

Compound: CCC(CN1N=C(c2ccccn2)c2cc(Br)ccc2N(C)C1=O)OC(=O)C(C)C (centres unmarked) [Compound 282]
- MLD [1]: 15 mg/kg

Compound: CCOc1cc(CCN2N=C(c3ccccn3)c3cc(Br)ccc3N(C)C2=O)on1 [Compound 271]
- MLD ([1]; SD): 30 mg/kg

Compound: CN(C)C(=O)CN1N=C(c2ccccn2)c2cc(Br)ccc2N(C)C1=O [Compound 258]
- MLD ([1]; SD): 40 mg/kg

Compound: COc1cc(CCN2N=C(c3ccccn3)c3cc(Br)ccc3N(C)C2=O)on1 [Compound 270]
- MLD ([1]; SD): 29.64 mg/kg

Compound: CC(C)OC(=O)C(C)N1N=C(c2ccccn2)c2cc(Br)ccc2N(C)C1=O (centres unmarked) [Compound 277]
- MLD ([1]; SD): 20 mg/kg

Compound: CN1C(=O)N(CCOC(=O)CCCl)N=C(c2ccccn2)c2cc(Br)ccc21 [Compound 299]
- MLD ([1]; SD): 15 mg/kg

Compound: CCOC(=O)C(C(C)C)N1N=C(c2ccccn2)c2cc(Br)ccc2N(C)C1=O (centres unmarked) [Compound 278]
- MLD [1]: 40 mg/kg

Compound: CN1C(=O)N(C[n+]2ccccc2)N=C(c2ccccn2)c2cc(Br)ccc21 [Compound 297]
- MLD ([1]; SD): 5 mg/kg

Compound: CCn1nnc(CCN2N=C(c3ccccn3)c3cc(Br)ccc3N(C)C2=O)n1 [Compound 265]
- MLD [1]: 40 mg/kg

Compound: Cc1c[n+]2c3n1-c1ccc(Br)cc1C(c1ccccn1)=NN3CC2 [Compound 321]
- MLD ([1]; SD): 10 mg/kg

Compound: CN1C(=O)N(CCc2cc(Br)no2)N=C(c2ccccn2)c2cc(Br)ccc21 [Compound 283]
- MLD ([1]; SD): 40 mg/kg

Compound: CCC(=O)CN1N=C(c2ccccn2)c2cc(Br)ccc2N(C)C1=O [Compound 281]
- MLD ([1]; SD): 40 mg/kg

Compound: CC(C)OC(=O)OCCN1N=C(c2ccccn2)c2cc(Br)ccc2N(C)C1=O [Compound 302]
- MLD ([1]; SD): 20 mg/kg

Compound: C=CC(=O)OCCN1N=C(c2ccccn2)c2cc(Br)ccc2N(C)C1=O [Compound 301]
- MLD ([1]; SD): 27.4 mg/kg

Compound: CN1C(=O)C(CCOC(=O)OC2COC2)N=C(c2ccccn2)c2cc(Br)ccc21 (centres unmarked) [Compound 134]
- MLD [1]: 20 mg/kg

Compound: CCN(C(=O)OCN1N=C(c2ccccn2)c2cc(Br)ccc2N(C)C1=O)C(C)C [Compound 296]
- MLD ([1]; SD): 15 mg/kg

Compound: CN1C2=NCCN2N=C(c2ccccn2)c2cc(Br)ccc21 [Compound 324]
- MLD ([1]; SD): >15.7 mg/kg

Compound: Cc1cnc2n1-c1ccc(Br)cc1C(c1ccccn1)=NN2CCOC(=O)OC(C)C [Compound 316]
- MLD ([1]; SD): 10 mg/kg

Compound: CN1C(=O)N(CCC#N)N=C(c2ccccn2)c2cc(Br)ccc21 [Compound 263]
- MLD ([1]; SD): 40 mg/kg

Compound: CCn1nnc(CN2N=C(c3ccccn3)c3cc(Br)ccc3N(C)C2=O)n1 [Compound 269]
- MLD ([1]; SD): >36 mg/kg

Compound: COC(=O)CCN1N=C(c2ccccn2)c2cc(Br)ccc2N(C)C1=O [Compound 259]
- MLD ([1]; SD): >20 mg/kg

Compound: COC(=O)CCC1N=C(c2ccccn2)c2cc3nc(C(F)(F)F)sc3cc2N(C)C1=O (centres unmarked) [Compound 180]
- MLD [1]: 40 mg/kg

Compound: CCOC(=O)CN1N=C(c2ccccn2)c2cc(Br)ccc2N=C1SC [Compound 306]
- MLD [1]: 40 mg/kg

Source: patent publication EP4711368A1 (priority 2023, dated 2024)
